According to ChEMBL document CHEMBL3044805, “A comparative study of the efficiency of several sources of induced resistance to powdery mildew (Blumeria graminis f. sp. tritici) in wheat under field conditions” (2009):

Key:
[1] = test system: Triticum aestivum; experiment: (§1) Induction of systemic acquired resistance against Blumeria graminis f. sp. tritici in Triticum aestivum (wheat) plants on Kanzler cultivar assessed as decrease in disease severity of powdery mildew in leaves […] (wheat) exposed to 1.2 mM compound for 3 years by small-plot experiment relative to control; format: functional; set-up: scale not given: the % may be the effect or the level left
[2] = test system: Triticum aestivum; experiment: as §1, with “0.3 M” for “1.2 mM”; format: functional; set-up: scale not given: the % may be the effect or the level left

Row | Structure (SMILES) | Activity [1] | Activity [2]
1 | CSC(=O)c1cccc2nnsc12 [ACIBENZOLAR-S-METHYL] | 14.5% | –
2 | C[N+](C)(C)CC(=O)O [BETAINE] | – | 31.8%
